Measurements from patent US7306804B2 (priority 1998, dated 2007).
Read-outs that look alike come from different tables or passages of the source.

How the values were obtained:
[1] = tested on: PBMCs from control and HIV-1 infected chimpanzees; format: cell-based, chimpanzee
[2] = tested on: anti-peptide antibodies in serum; format: binding, human; set-up: key to Anti-peptide antibody response: +, Positive (titer above control); −, Negative (titer below control)
[3] = tested on: PBMCs from normal and HIV-positive individuals; format: cell-based, human; conditions: for number of HIV+ individuals with positive proliferative responses: 17 HIV+ individuals tested
[4] = tested on: anti-peptide antibodies in serum; format: binding, chimpanzee; set-up: key: +, Positive (Titer > 1:100); −, Negative (Titer < 1:100)

## CRIKQIINMWQGVGKAMYA [Peptide 122]
[1]; chimpanzee 40, control normal
  T-cell proliferative response: − (−, Negative (SI < 2.0))
[1]; chimpanzee 62, HIV-infected
  T-cell proliferative response: − (−, Negative (SI < 2.0))
[1]; chimpanzee 69, HIV-infected
  T-cell proliferative response: + (+, Positive (Stimulation Index [SI] > 2.0))
[1]; chimpanzee 73, control normal
  T-cell proliferative response: − (−, Negative (SI < 2.0))
[1]; chimpanzee 80, HIV-infected
  T-cell proliferative response: + (+, Positive (Stimulation Index [SI] > 2.0))
[1]; chimpanzee 99, HIV-infected
  T-cell proliferative response: − (−, Negative (SI < 2.0))
[1]; chimpanzee 100, HIV-infected
  T-cell proliferative response: + (+, Positive (Stimulation Index [SI] > 2.0))
[1]; chimpanzee 139, HIV-infected
  T-cell proliferative response: − (−, Negative (SI < 2.0))
[1]; chimpanzee 175, HIV-infected
  T-cell proliferative response: + (+, Positive (Stimulation Index [SI] > 2.0))
[1]; chimpanzee 247, HIV-infected
  T-cell proliferative response: − (−, Negative (SI < 2.0))
[1]; chimpanzee 310, HIV-infected
  T-cell proliferative response: − (−, Negative (SI < 2.0))
[2]
  number of HIV+ individuals with positive antibody titers (<1:1280): None
[2]; HIV-positive patient MSf
  Anti-peptide antibody response: −
[2]; HIV-positive patient MSm
  Anti-peptide antibody response: −
[2]; HIV-positive patient eight
  Anti-peptide antibody response: −
[2]; HIV-positive patient eleven
  Anti-peptide antibody response: −
[2]; HIV-positive patient fifteen
  Anti-peptide antibody response: −
[2]; HIV-positive patient five
  Anti-peptide antibody response: −
[2]; HIV-positive patient four
  Anti-peptide antibody response: −
[2]; HIV-positive patient fourteen
  Anti-peptide antibody response: −
[2]; HIV-positive patient nine
  Anti-peptide antibody response: −
[2]; HIV-positive patient one
  Anti-peptide antibody response: −
[2]; HIV-positive patient seven
  Anti-peptide antibody response: −
[2]; HIV-positive patient six
  Anti-peptide antibody response: −
[2]; HIV-positive patient ten
  Anti-peptide antibody response: −
[2]; HIV-positive patient thirteen
  Anti-peptide antibody response: −
[2]; HIV-positive patient three
  Anti-peptide antibody response: −
[2]; HIV-positive patient twelve
  Anti-peptide antibody response: −
[2]; HIV-positive patient two
  Anti-peptide antibody response: −
[2]; Normal-1 (HIV-seronegative)
  Anti-peptide antibody response: −
[2]; Normal-2 (HIV-seronegative)
  Anti-peptide antibody response: −
[3]
  number of HIV+ individuals with positive proliferative responses: seven
[3]; HIV-positive patient MSf
  T-cell proliferative response: − (−, Negative (SI < 2.0))
[3]; HIV-positive patient MSm
  T-cell proliferative response: − (−, Negative (SI < 2.0))
[3]; HIV-positive patient eight
  T-cell proliferative response: − (−, Negative (SI < 2.0))
[3]; HIV-positive patient eleven
  T-cell proliferative response: − (−, Negative (SI < 2.0))
[3]; HIV-positive patient fifteen
  T-cell proliferative response: + (+, Positive (Stimulation Index [SI] > 2.0))
[3]; HIV-positive patient five
  T-cell proliferative response: − (−, Negative (SI < 2.0))
[3]; HIV-positive patient four
  T-cell proliferative response: − (−, Negative (SI < 2.0))
[3]; HIV-positive patient fourteen
  T-cell proliferative response: + (+, Positive (Stimulation Index [SI] > 2.0))
[3]; HIV-positive patient nine
  T-cell proliferative response: + (+, Positive (Stimulation Index [SI] > 2.0))
[3]; HIV-positive patient one
  T-cell proliferative response: + (+, Positive (Stimulation Index [SI] > 2.0))
[3]; HIV-positive patient seven
  T-cell proliferative response: − (−, Negative (SI < 2.0))
[3]; HIV-positive patient six
  T-cell proliferative response: − (−, Negative (SI < 2.0))
[3]; HIV-positive patient ten
  T-cell proliferative response: + (+, Positive (Stimulation Index [SI] > 2.0))
[3]; HIV-positive patient thirteen
  T-cell proliferative response: − (−, Negative (SI < 2.0))
[3]; HIV-positive patient three
  T-cell proliferative response: + (+, Positive (Stimulation Index [SI] > 2.0))
[3]; HIV-positive patient twelve
  T-cell proliferative response: + (+, Positive (Stimulation Index [SI] > 2.0))
[3]; HIV-positive patient two
  T-cell proliferative response: − (−, Negative (SI < 2.0))
[3]; Normal-1 (HIV-seronegative)
  T-cell proliferative response: − (−, Negative (SI < 2.0))
[3]; Normal-2 (HIV-seronegative)
  T-cell proliferative response: − (−, Negative (SI < 2.0))
[4]
  Anti-peptide antibody response: −
[4]; chimpanzee 40, control normal
  Anti-peptide antibody response: −
[4]; chimpanzee 73, control normal
  Anti-peptide antibody response: −

## FLGFLGAAGSTMGAASLTLTVQARQ [Peptide 121]
[1]; chimpanzee 40, control normal
  T-cell proliferative response: − (−, Negative (SI < 2.0))
[1]; chimpanzee 62, HIV-infected
  T-cell proliferative response: + (+, Positive (Stimulation Index [SI] > 2.0))
[1]; chimpanzee 69, HIV-infected
  T-cell proliferative response: + (+, Positive (Stimulation Index [SI] > 2.0))
[1]; chimpanzee 73, control normal
  T-cell proliferative response: − (−, Negative (SI < 2.0))
[1]; chimpanzee 80, HIV-infected
  T-cell proliferative response: + (+, Positive (Stimulation Index [SI] > 2.0))
[1]; chimpanzee 99, HIV-infected
  T-cell proliferative response: − (−, Negative (SI < 2.0))
[1]; chimpanzee 100, HIV-infected
  T-cell proliferative response: + (+, Positive (Stimulation Index [SI] > 2.0))
[1]; chimpanzee 139, HIV-infected
  T-cell proliferative response: − (−, Negative (SI < 2.0))
[1]; chimpanzee 175, HIV-infected
  T-cell proliferative response: + (+, Positive (Stimulation Index [SI] > 2.0))
[1]; chimpanzee 247, HIV-infected
  T-cell proliferative response: − (−, Negative (SI < 2.0))
[1]; chimpanzee 310, HIV-infected
  T-cell proliferative response: − (−, Negative (SI < 2.0))
[1]; nine HIV-infected chimpanzees tested
  number of HIV-infected chimpanzees with positive proliferative responses (SI>2.0): five
[2]
  number of HIV+ individuals with positive antibody titers (<1:1280): one
[2]; HIV-positive patient MSf
  Anti-peptide antibody response: −
[2]; HIV-positive patient MSm
  Anti-peptide antibody response: −
[2]; HIV-positive patient eight
  Anti-peptide antibody response: −
[2]; HIV-positive patient eleven
  Anti-peptide antibody response: −
[2]; HIV-positive patient fifteen
  Anti-peptide antibody response: −
[2]; HIV-positive patient five
  Anti-peptide antibody response: −
[2]; HIV-positive patient four
  Anti-peptide antibody response: −
[2]; HIV-positive patient fourteen
  Anti-peptide antibody response: −
[2]; HIV-positive patient nine
  Anti-peptide antibody response: +
[2]; HIV-positive patient one
  Anti-peptide antibody response: −
[2]; HIV-positive patient seven
  Anti-peptide antibody response: −
[2]; HIV-positive patient six
  Anti-peptide antibody response: −
[2]; HIV-positive patient ten
  Anti-peptide antibody response: −
[2]; HIV-positive patient thirteen
  Anti-peptide antibody response: −
[2]; HIV-positive patient three
  Anti-peptide antibody response: −
[2]; HIV-positive patient twelve
  Anti-peptide antibody response: −
[2]; HIV-positive patient two
  Anti-peptide antibody response: −
[2]; Normal-1 (HIV-seronegative)
  Anti-peptide antibody response: −
[2]; Normal-2 (HIV-seronegative)
  Anti-peptide antibody response: −
[3]
  number of HIV+ individuals with positive proliferative responses: five
[3]; HIV-positive patient MSf
  T-cell proliferative response: − (−, Negative (SI < 2.0))
[3]; HIV-positive patient MSm
  T-cell proliferative response: − (−, Negative (SI < 2.0))
[3]; HIV-positive patient eight
  T-cell proliferative response: − (−, Negative (SI < 2.0))
[3]; HIV-positive patient eleven
  T-cell proliferative response: − (−, Negative (SI < 2.0))
[3]; HIV-positive patient fifteen
  T-cell proliferative response: + (+, Positive (Stimulation Index [SI] > 2.0))
[3]; HIV-positive patient five
  T-cell proliferative response: − (−, Negative (SI < 2.0))
[3]; HIV-positive patient four
  T-cell proliferative response: − (−, Negative (SI < 2.0))
[3]; HIV-positive patient fourteen
  T-cell proliferative response: + (+, Positive (Stimulation Index [SI] > 2.0))
[3]; HIV-positive patient nine
  T-cell proliferative response: − (−, Negative (SI < 2.0))
[3]; HIV-positive patient one
  T-cell proliferative response: − (−, Negative (SI < 2.0))
[3]; HIV-positive patient seven
  T-cell proliferative response: − (−, Negative (SI < 2.0))
[3]; HIV-positive patient six
  T-cell proliferative response: + (+, Positive (Stimulation Index [SI] > 2.0))
[3]; HIV-positive patient ten
  T-cell proliferative response: + (+, Positive (Stimulation Index [SI] > 2.0))
[3]; HIV-positive patient thirteen
  T-cell proliferative response: − (−, Negative (SI < 2.0))
[3]; HIV-positive patient three
  T-cell proliferative response: + (+, Positive (Stimulation Index [SI] > 2.0))
[3]; HIV-positive patient twelve
  T-cell proliferative response: − (−, Negative (SI < 2.0))
[3]; HIV-positive patient two
  T-cell proliferative response: − (−, Negative (SI < 2.0))
[3]; Normal-1 (HIV-seronegative)
  T-cell proliferative response: − (−, Negative (SI < 2.0))
[3]; Normal-2 (HIV-seronegative)
  T-cell proliferative response: − (−, Negative (SI < 2.0))
[4]
  Anti-peptide antibody response: −
[4]; chimpanzee 40, control normal
  Anti-peptide antibody response: −
[4]; chimpanzee 73, control normal
  Anti-peptide antibody response: −
